Series [1] relates to polyamine transport system. As to the kind of experiment: Time course of [3H]spermidine accumulation in T-47D cells. Type of series: cell-based, human. Here is the method:
In particular, exponentially growing T-47D (A) or ZR-75-1 cells (B and C) were transferred to serum-free medium containing 5 μM [^3H]spermidine, and either 200 μM cycloheximide (CHX) (●), 100 μM BNSD-X (□), CHX plus BNSD-X (▪), or vehicle only (∘). Cells were incubated for the time intervals indicated prior to harvesting for detrmination of total intracellular radioactivity. ZR-75-1 cells were either pre-incubated for 48 h in the absence (panel B) or presence of 1 mM DFMO (panel C) prior to the experiment shown; DFMO was also included during the labeling period in the appropriate group. Data are presented as the mean±SD for triplicate cultures from one representative experiment;
The effect of BNSD-X on the time course of [^3H]spermidine accumulation was determined in ZR-75-1 and T-47D cells pre-incubated in the presence or absence of DFMO before addition of radioactive substrate and the transport inhibitor. Subgroups of cell cultures were also treated with cycloheximide in order to prevent the polyamine-dependent induction of ODC antizyme, which rapidly down-regulates polyamine transport activity through an unknown mechanism (Lessard et al. (1995) J. Biol. Chem. 270, 1685-1694; Coffino et al. (2001) Nat Rev Mol Cell Biol. 2:188-194). As expected, [^3H]spermidine accumulation reached a plateau after approximately 2 h in both […], but increased in an approximately linear fashion for the first 6-8 h in the presence of cycloheximide, consistent with relief from feedback repression of polyamine transport as a result of inhibition of antizyme synthesis. At a BNSD-X:spermidine ratio of 20:1, the triamine dimer decreased net [^3H]spermidine uptake in T-47D cells after 8 h by 92% and 80% in the presence or absence of cycloheximide, respectively (FIG. 7A), whereas it inhibited spermidine accumulation by 90 and 65%, respectively, under the same conditions in ZR-75-1 cells (FIG. 7B). […]

For the next series, the system named is mice. The series is described as follows: Acute and subacute oral toxicity of BNSD-X by gavage. Type of series: in vivo. Here is the method: To assess the relative toxicity of BNSD-X, the drug was administered as a 1% (w/v) solution in the drinking water to CD-1 mice with ad libitum access for 14 d. Mice were weighed every other day during the experiment. At the end of the experiment, mice were sacrificed, and organs (kidneys, liver, and spleen) were immediately weighed. Organs were then saved in 10% formalin for morphological examination by an in-house pathologist at the CHUL Research Center (Quebec City, Canada). Acute and subacute oral toxicity of BNSD-X was also separately determined by administering the drug by gavage (0-5 g/kg body weight).
Orally administered polyamines (at ≧0.6 g/kg/day) can have deleterious neurological effects and induce lesions on internal organs (Til et al. (1997) Food Chem Toxicol. 35:337-348.). In order to assess the acute and subacute toxicity of BNSD-X as an orally delivered hexaamine, the effects of gavage with solid BNSD-X pellets was first examined in mice.

The subject of series [2] is Jurkat, LAN-1, L1210, T-47D, ZR-75-1 and MDA-MB-231 cells. The series is described as follows: Effect of BNSD-X on cell proliferation in various mammalian cell lines. In kind it is cell-based. Conditions: 1 mM aminoguanidine; 4 to 11 d. Here is the method: FIGS. 3A and 3B are graphs showing the effect compounds used in a method according preferred embodiment of the present invention, on cell proliferation. In particular, they relate to the effect of selected BSD and BNSD derivatives on T-47D cell proliferation. Cells were incubated for 9 d with the indicated concentrations of BSD-2 (∘), BNSD-4 (●), BSD-4 (□), BNSD-6 (▪), BSD-10 (Δ), BSD-4-ene (▴) and BSD-4-yne (▾) in medium containing 1 mM aminoguanidine, and total DNA content per culture was then determined. B, Effect of BNSD-X (N,N,N′,N′-tetrakis-(3-aminopropyl)-p-diaminoxylene) on cell proliferation in various mammalian cell lines. Jurkat (∘), LAN-1 (●), L1210 (□), T-47D (▪), ZR-75-1 (Δ) and MDA-MB-231 (▴) cells were grown to near confluency or saturation (for 4 to 11 d according to the cell line considered) with the indicated concentrations of BNSD-X in the presence of 1 mM aminoguanidine, and total DNA content per culture was then determined. Data are given as the mean±SD for triplicate cultures from one out of at least two identical experiments;
The effect of transport inhibitors on cell proliferation was evaluated by determination of cell number (L1210, Jurkat) using electronic sizing with a Model ZM Coulter counter (Coulter Electronics, Hialeah, Fla.), or DNA content per culture (for all other cell lines) with the 3,5-diaminobenzoic acid assay. […]

Structures are written as SMILES.

In the case of `NCCCN(CCCN)Cc1ccc(CN(CCCN)CCCN)cc1` [28a, N,N,N′,N′-tetrakis-(3-aminopropyl)-p-diaminoxylene], in series [1] (20-fold excess of BNSD-X, T-47D and ZR-75-1), the “residual rate of spermidine influx, of the maximal rate of spermidine accumulation” value is given as 8-10%. For the same compound, in series [1] (T-47D, after 8 h, BNSD-X:spermidine 20:1), the “decrease of net [3H]spermidine uptake, without cycloheximide” value stood at 80%. For the same compound, in series [1] (T-47D, after 8 h, BNSD-X:spermidine 20:1 (100 μM:5 μM), 200 μM cycloheximide), the “decrease of net [3H]spermidine uptake, with cycloheximide” value is 92%. In addition, the “adverse effect on animal behavior, body weight, body features and gross anatomy of kidneys, liver or spleen” value in the series on mice (gavage, up to 5.0 g/kg body weight) is “No external sign of sign of adverse effect”. This compound registered an LD50 with mice (oral gavage with solid BNSD-X pellets) greater than 5 g/body weight. Further, the “effect on proliferation of a panel of mammalian cell lines” value in series [2] was “remarkably inert”.

The record behind these values is patent US7425579B2, “Methods for inhibiting activity of polyamine transporters” (Universite Laval, priority 1998, dated 2008).
